From patent US20240018123A1, “COMPOUND FOR INHIBITING OR DISINTEGRATING ANDROGEN RECEPTOR, AND PHARMACEUTICAL USE THEREOF” (KOREA RESEARCH INSTITUTE OF CHEMICAL TECHNOLOGY, priority 2020, published 2024)

What was measured:
LNCaP cells = test: Cytotoxicity assessment (Cell-titer-glo cell viability), LNCaP; conditions: read-out: LNCAP (CC50); LNCaP cells, 6 days of treatment, Cell-titer-glo, vs DMSO
Description: In order to evaluate the androgen receptor (AR) cytotoxicity of the compounds according to the present invention, the following experiment was conducted. Specifically, 1.5×10^3 (LNCaP) or 4×10^3 (VCaP, 22RV1), respectively, of LNCaP, VCaP, and 22RV1 cells were injected into each well of a 96-well plate. The next day, each well was treated with the compound at a final concentration of 3 nM, 10 nM, 30 nM, 100 nM, 300 nM, 1 μM, 3 μM, and 10 μM. […] After 6 days of treatment, Cell-titer-glo (promega) was treated and reacted for 10 minutes, and cell viability was measured with a multimode plate reader (PerkinElmer, Inc.), and the change was quantified compared to when DMSO was treated.

VCaP cells = test: Cytotoxicity assessment (Cell-titer-glo cell viability), VCaP; conditions: read-out: VCaP (CC50); VCaP cells, 6 days of treatment, Cell-titer-glo, vs DMSO

Compound	CC50 (LNCaP cells)	CC50 (VCaP cells)
CC1(C)C(NC(=O)c2ccc(CCN3CCN(CC4CCN(C(=O)CNc5ccc6nnn(C7CCC(=O)NC7=O)c(=O)c6c5)CC4)CC3)cc2)C(C)(C)C1Oc1ccc(C#N)c(Cl)c1 (centres unmarked) [Example 110, N-((1r,3r)-3-(3-chloro-4-cyanophenoxy)-2,2,4,4-tetramethylcyclobutyl)-4-(2-(4-((1-((3-(2,6-dioxopiperidin-3-yl)-4-oxo-3,4-dihydrobenzo[d][1,2,3]triazin-6-yl)glycyl)piperidin-4-yl)methyl)piperazin-1-yl)ethyl)benzamide]	456 nM	3.65 nM
CC1(C)C(NC(=O)c2ccc(CCN3CCN(CC4CCN(c5ccc6nnn(C7CCC(=O)NC7=O)c(=O)c6c5)CC4)CC3)cc2)C(C)(C)C1Oc1ccc(C#N)c(Cl)c1 (centres unmarked) [Example 111, N-((1r,3r)-3-(3-chloro-4-cyanophenoxy)-2,2,4,4-tetramethylcyclobutyl)-4-(2-(4-((1-(3-(2,6-dioxopiperidin-3-yl)-4-oxo-3,4-dihydrobenzo[d][1,2,3]triazin-6-yl)piperidin-4-yl)methyl)piperazin-1-yl)ethyl)benzamide]	37.2 nM	2.29 nM
CC1(C)C(NC(=O)c2ccc(-c3cnn(C4CCN(CC5CCN(c6ccc7nnn(C8CCC(=O)NC8=O)c(=O)c7c6)CC5)CC4)c3)nc2)C(C)(C)C1Oc1ccc(C#N)c(Cl)c1 (centres unmarked) [Example 115, N-((1r,3r)-3-(3-chloro-4-cyanophenoxy)-2,2,4,4-tetramethylcyclobutyl)-6-(1-(1-((1-(3-(2,6-dioxopiperidin-3-yl)-4-oxo-3,4-dihydrobenzo[d][1,2,3]triazin-6-yl)piperidin-4-yl)methyl)piperidin-4-yl)-1H-pyrazol-4-yl)nicotinamide]	182 nM	38 nM
CC1(C)C(NC(=O)c2ccc(C#CCC3CCN(CC4CCN(C(=O)C5CN(c6ccc7nnn(C8CCC(=O)NC8=O)c(=O)c7c6)C5)CC4)CC3)cc2)C(C)(C)C1Oc1ccc(C#N)c(Cl)c1 (centres unmarked) [Example 117, N-((1r,3r)-3-(3-chloro-4-cyanophenoxy)-2,2,4,4-tetramethylcyclobutyl)-4-(3-(1-((1-(1-(3-(2,6-dioxopiperidin-3-yl)-4-oxo-3,4-dihydrobenzo[d][1,2,3]triazin-6-yl)azetidine-3-carbonyl)piperidin-4-yl)methyl)piperidin-4-yl)prop-1-yn-1-yl)benzamide]	166 nM	13 nM
